The values below come from patent publication US20080214529A1, “SATURATED FUSED [1,2-b]PYRIDAZINONE COMPOUNDS” (priority 2006, published 2008).

The target of one data set is NS5B polymerase (Hepatitis C virus genotype 1b, UniProt P26663). The data set is described as follows: biochemical. The following applies: NS5B polymerase inhibition; 20 nM enzyme, 75 min at 28° C. On the procedure: Compounds were tested for HCV polymerase inhibition. Assays were performed in a 96-well streptavidin-coated FlashPlate using 20 nM enzyme, 0.5 μCi of [α-^33P]GTP, 0.6 μM GTP, and 250 nM 5′biotinylated oligo (rG13)/poly rC in 20 mM Tris-HCl, pH 7.5, 5 mM MgCl2, 5 mM dithiothreitol, 0.1 g/L bovine serum albumin, and 100 U/mL RNAse inhibitor. The reaction was stopped by aspiration after 75 min at 28° C. and the plate was washed several times. After washing and drying the plate, incorporated radioactivity was counted using a Microbeta scintillation counter. IC50 values were calculated relative to the uninhibited control and inhibition data were fitted to a 4-parameter IC50 equation.
NS5B polymerase, sequence (P26663 2420-3010): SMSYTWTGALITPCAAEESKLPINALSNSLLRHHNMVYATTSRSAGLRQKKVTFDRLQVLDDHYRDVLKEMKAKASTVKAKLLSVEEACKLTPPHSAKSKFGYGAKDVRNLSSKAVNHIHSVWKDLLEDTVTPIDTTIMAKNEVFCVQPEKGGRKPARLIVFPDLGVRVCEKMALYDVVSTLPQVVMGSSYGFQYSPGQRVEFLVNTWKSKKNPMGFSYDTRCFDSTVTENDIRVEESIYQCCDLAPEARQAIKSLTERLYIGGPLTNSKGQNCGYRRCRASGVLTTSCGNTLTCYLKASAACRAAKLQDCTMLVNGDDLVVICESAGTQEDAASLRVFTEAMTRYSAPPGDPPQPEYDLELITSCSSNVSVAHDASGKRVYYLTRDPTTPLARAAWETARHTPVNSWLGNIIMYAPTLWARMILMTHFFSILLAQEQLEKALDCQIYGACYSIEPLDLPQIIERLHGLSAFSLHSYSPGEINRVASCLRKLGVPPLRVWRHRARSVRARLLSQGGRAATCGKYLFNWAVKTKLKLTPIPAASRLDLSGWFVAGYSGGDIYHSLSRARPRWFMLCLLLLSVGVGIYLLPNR

Counter-ions that a name gives are not always drawn. Where only a bound is given, the exact number is not on record here.

`CN1N(CCC(C)(C)C)C(=O)C(C2=NS(=O)(=O)c3cc(NS(C)(=O)=O)ccc3N2)=C(O)C12CCCC2` (as salt: trifluoroacetic acid salt) [Example 5, N-{3-[7-(3,3-Dimethyl-butyl)-10-hydroxy-6-methyl-8-oxo-6,7-diaza-spiro[4.5]dec-9-en-9-yl]-1,1-dioxo-1,4-dihydro-1λ^6-benzo[1,2,4]thiadiazin-7-yl}-methanesulfonamide] gave a melting point of 203.8 to 205.7 °C.

For the compound `CS(=O)(=O)Nc1ccc2c(c1)S(=O)(=O)N=C(C1=C(O)C3CC4CCCC4N3N(C3CCCCC3)C1=O)N2` (single isomer, unassigned) [10 Isomer 1], on NS5B polymerase, the IC50 fell in the range of 200 to 3000 nM.

Consider `CS(=O)(=O)Nc1ccc2c(c1)S(=O)(=O)N=C(C1=C(O)C3CCCCN3N(Cc3ccc(F)cc3)C1=O)N2` (stereo not drawn) [Example 1, N-{3-[1-(4-Fluoro-benzyl)-4-hydroxy-2-oxo-2,4a,5,6,7,8-hexahydro-1H-pyrido[1,2-b]pyridazin-3-yl]-1,1-dioxo-1,4-dihydro-1λ^6-benzo[1,2,4]thiadiazin-7-yl}-methanesulfonamide], for which the IC50 against NS5B polymerase was less than 20 nM.

With `CC(C)(C)CCN1C(=O)C(C2=NS(=O)(=O)c3cc(NS(C)(=O)=O)ccc3N2)=C(O)C2CCCCN21` (stereo not drawn) [Example 2, N-{3-[1-(3,3-Dimethyl-butyl)-4-hydroxy-2-oxo-2,4a,5,6,7,8-hexahydro-1H-pyrido[1,2-b]pyridazin-3-yl]-1,1-dioxo-1,4-dihydro-1λ^6-benzo[1,2,4]thiadiazin-7-yl}-methanesulfonamide], the IC50 on NS5B polymerase was in the range of 20 to 200 nM.

In the case of `CC(C)(C)CCN1C(=O)C(C2=NS(=O)(=O)c3cc(NS(C)(=O)=O)ccc3N2)=C(O)C2CCCN21` (stereo not drawn) [Example 3, N-{3-[1-(3,3-Dimethyl-butyl)-4-hydroxy-2-oxo-1,2,4a,5,6,7-hexahydro-pyrrolo[1,2-b]pyridazin-3-yl]-1,1-dioxo-1,4-dihydro-1λ^6-benzo[1,2,4]thiadiazin-7-yl}-methanesulfonamide], the half-maximal inhibitory concentration (IC50) against NS5B polymerase was less than 20 nM.

As to `CC(C)(C)CCN1C(=O)C(C2=NS(=O)(=O)c3cc(NS(C)(=O)=O)ccc3N2)=C(O)C2(C)CCCN12` (stereo not drawn) [Example 4, N-{3-[1-(3,3-Dimethyl-butyl)-4-hydroxy-4a-methyl-2-oxo-1,2,4a,5,6,7-hexahydro-pyrrolo[1,2-b]pyridazin-3-yl]-1,1-dioxo-1,4-dihydro-1λ^6-benzo[1,2,4]thiadiazin-7-yl}-methanesulfonamide], at NS5B polymerase, the half-maximal inhibitory concentration (IC50) lay in the range of 20 to 200 nM.

Turning to `CN1N(CCC(C)(C)C)C(=O)C(C2=NS(=O)(=O)c3cc(NS(C)(=O)=O)ccc3N2)=C(O)C12CCCC2` [Example 5, N-{3-[7-(3,3-Dimethyl-butyl)-10-hydroxy-6-methyl-8-oxo-6,7-diaza-spiro[4.5]dec-9-en-9-yl]-1,1-dioxo-1,4-dihydro-1λ^6-benzo[1,2,4]thiadiazin-7-yl}-methanesulfonamide], the IC50 against NS5B polymerase fell in the range of 200 to 3000 nM.

`CC(C)CCN1C(=O)C(C2=NS(=O)(=O)c3cc(NS(C)(=O)=O)ccc3N2)=C(O)C2CCCN21` (stereo not drawn) [Example 6, N-{3-[4-Hydroxy-1-(3-methyl-butyl)-2-oxo-1,2,4a,5,6,7-hexahydro-pyrrolo[1,2-b]pyridazin-3-yl]-1,1-dioxo-1,4-dihydro-1λ^6-benzo[1,2,4]thiadiazin-7-yl}-methanesulfonamide] gave an IC50 against NS5B polymerase of less than 20 nM.

Consider `CS(=O)(=O)Nc1ccc2c(c1)S(=O)(=O)N=C(C1=C(O)C3CCCN3N(Cc3ccc(F)cc3)C1=O)N2` (stereo not drawn) [Example 7, N-{3-[1-(4-Fluoro-benzyl)-4-hydroxy-2-oxo-1,2,4a,5,6,7-hexahydro-pyrrolo[1,2-b]pyridazin-3-yl]-1,1-dioxo-1,4-dihydro-1λ^6-benzo[1,2,4]thiadiazin-7-yl}-methanesulfonamide], for which, at NS5B polymerase, the IC50 was less than 20 nM.

Turning to `CS(=O)(=O)Nc1ccc2c(c1)S(=O)(=O)N=C(C1=C(O)C3C4CCC(C4)N3N(Cc3ccc(F)cc3)C1=O)N2` (stereo not drawn) [Example 9, N-{3-[3-(4-Fluoro-benzyl)-6-hydroxy-4-oxo-2,3-diaza-tricyclo[6.2.1.0^2,7]undec-5-en-5-yl]-1,1-dioxo-1,4-dihydro-1λ^6-benzo[1,2,4]thiadiazin-7-yl}-methanesulfonamide], at NS5B polymerase, the IC50 is less than 20 nM.

In the case of `CS(=O)(=O)Nc1ccc2c(c1)S(=O)(=O)N=C(C1=C(O)[C@@H]3C4CCC(CC4)N3N(Cc3ccc(F)cc3)C1=O)N2` [Example 11, (7S)-N-{3-[3-(4-Fluoro-benzyl)-6-hydroxy-4-oxo-2,3-diaza-tricyclo[6.2.2.0^2,7]dodec-5-en-5-yl]-1,1-dioxo-1,4-dihydro-1λ^6-benzo[1,2,4]thiadiazin-7-yl}-methanesulfonamide], the IC50 against NS5B polymerase lay in the range of 20 to 200 nM.

Regarding `CS(=O)(=O)Nc1ccc2c(c1)S(=O)(=O)N=C(C1=C(O)[C@]34C[C@H]3CCN4N(Cc3ccc(F)cc3)C1=O)N2` [Example 12, (1aR,7aS)-N-{3-[4-(4-Fluoro-benzyl)-7-hydroxy-5-oxo-1,1a,2,3,4,5-hexahydro-3a,4-diaza-cyclopropa[c]inden-6-yl]-1,1-dioxo-1,4-dihydro-1λ^6-benzo[1,2,4]thiadiazin-7-yl}-methanesulfonamide], the IC50 at NS5B polymerase lay within 20 to 200 nM.

A word on the melting point: it is the temperature of the solid-liquid transition. As a reminder, the IC50 is the concentration at which inhibition is half-maximal. A low value points to inhibition by little substance.
